{"source": "patent US20240246946A1", "about": "“MODULATORS OF TREX1” (Constellation Pharmaceuticals, Inc., priority 2021, published 2024)", "key": {"[1]": {"target": "T1, full length human TREX1 (Homo sapiens, UniProt Q9NSU2)", "T1 construct": "N-terminally His-Tev tagged full length human TREX1; made in house; host or cells: E. coli", "T1 sequence (Q9NSU2 1-314)": "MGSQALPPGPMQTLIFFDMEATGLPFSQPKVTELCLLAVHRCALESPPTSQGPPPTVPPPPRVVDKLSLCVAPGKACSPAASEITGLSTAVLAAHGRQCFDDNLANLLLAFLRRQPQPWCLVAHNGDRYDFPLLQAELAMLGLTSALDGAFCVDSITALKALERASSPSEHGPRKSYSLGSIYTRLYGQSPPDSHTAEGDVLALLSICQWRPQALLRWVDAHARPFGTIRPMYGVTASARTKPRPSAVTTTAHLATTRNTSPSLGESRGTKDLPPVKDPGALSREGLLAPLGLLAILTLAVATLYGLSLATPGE", "assay": "hTREX1 Biochemical Assay (fluorescence, dsDNA substrate degradation)", "settings": "biochemical, read-out: hTREX1 IC50", "procedure": "(§1) Degradation of the dsDNA liberates free fluorophore to produce a fluorescent signal. Specifically, 7.5 μL of N-terminally His-Tev tagged full length human TREX1 (expressed in E. coli and purified in house) in reaction buffer (50 mM Tris, 150 mM NaCl, 2 mM DTT, 0.1 mg/mL BSA, 0.01% (w/v) Tween-20, 5 mM MgCl2, pH 7.4) was added to a 384-well Black ProxiPlate Plus (PerkinElmer) which already contained compound (150 nL) at varying concentrations as a 10 point dose-response in DMSO. The plate was incubated at 25° C. for 4 hours. Reactions were initiated by adding 7.5 μL of dsDNA substrate (Strand A: 5′ TEX615/GCT AGG CAG 3′; Strand B: 5′ CTG CCT AGC/IAbRQSp (Integrated DNA Technologies)) in reaction buffer. Final concentrations were 4 pM TREX1, 60 nM dsDNA substrate in reaction buffer with 1.0% DMSO (v/v). After 18 hours at 25° C., reactions were quenched by the addition of 2 μL of 500 mM EDTA."}, "[2]": {"target": "T2, full length mouse TREX1 (Mus musculus, UniProt Q91XB0)", "T2 construct": "N-terminally His-Tev tagged full length mouse TREX1; made in house; host or cells: E. coli", "T2 sequence (Q91XB0 1-314)": "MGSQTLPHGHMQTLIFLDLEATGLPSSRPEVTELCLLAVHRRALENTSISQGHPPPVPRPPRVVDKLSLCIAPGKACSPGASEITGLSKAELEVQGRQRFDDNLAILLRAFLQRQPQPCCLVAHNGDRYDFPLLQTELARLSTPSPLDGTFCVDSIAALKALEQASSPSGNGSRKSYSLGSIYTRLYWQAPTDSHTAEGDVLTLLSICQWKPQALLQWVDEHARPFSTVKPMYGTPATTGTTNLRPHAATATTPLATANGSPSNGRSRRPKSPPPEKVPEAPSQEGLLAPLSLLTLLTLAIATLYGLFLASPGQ", "assay": "mTREX1 Biochemical Assay (fluorescence, dsDNA substrate degradation)", "settings": "biochemical, read-out: mTREX1 IC50", "procedure": "as §1, with “length mouse” for “length human”, “were 6” for “were 4”"}}, "data": [{"smiles": "CC(c1nc(C(=O)Nc2cnoc2)c(O)c(=O)n1C)C(c1cnn(C)c1)c1cc(F)c(F)cc1C#N", "note": "(single isomer, unassigned) [Example 25 D2E2]", "values": [{"measurement": "IC50", "setting": "[1]", "value": "> 10", "unit": "nM"}, {"measurement": "IC50", "setting": "[2]", "value": "> 10", "unit": "nM"}]}, {"smiles": "CC(c1nc(C(=O)Nc2cnoc2)c(O)c(=O)n1C)C(c1cnn(CC(C)(C)O)c1)c1ccccc1C#N", "note": "(single isomer, unassigned) [Example 36 D1E2]", "values": [{"measurement": "IC50", "setting": "[1]", "value": "> 10", "unit": "nM"}, {"measurement": "IC50", "setting": "[2]", "value": "> 10", "unit": "nM"}]}, {"smiles": "CC(c1nc(C(=O)Nc2cnoc2)c(O)c(=O)n1C)C(c1cnn(C)c1)c1ccc(Cl)cc1C#N", "note": "(single isomer, unassigned) [Example 27 D2E1]", "values": [{"measurement": "IC50", "setting": "[1]", "value": "> 10", "unit": "nM"}, {"measurement": "IC50", "setting": "[2]", "value": "> 10", "unit": "nM"}]}, {"smiles": "Cc1cn(C)nc1C(c1ccccc1C#N)C(C)c1nc(C(=O)Nc2cnoc2)c(O)c(=O)n1C", "note": "(single isomer, unassigned) [Example 64 D1E2]", "values": [{"measurement": "IC50", "setting": "[1]", "value": "> 10", "unit": "nM"}, {"measurement": "IC50", "setting": "[2]", "value": "> 10", "unit": "nM"}]}, {"smiles": "CC(c1nc(C(=O)Nc2cnoc2)c(O)c(=O)n1C)C(c1cnn(CCCN(C)C)c1)c1ccccc1C#N", "note": "(single isomer, unassigned) [Example 34 D2E2]", "values": [{"measurement": "IC50", "setting": "[1]", "value": "> 10", "unit": "nM"}, {"measurement": "IC50", "setting": "[2]", "value": "> 10", "unit": "nM"}]}, {"smiles": "Cn1cc(C(c2ccccc2C#N)C(c2nc(C(=O)Nc3cnoc3)c(O)c(=O)n2C)C(F)(F)F)cn1", "note": "(single isomer, unassigned) [Example 40 D2E1]", "values": [{"measurement": "IC50", "setting": "[1]", "value": "> 10", "unit": "nM"}, {"measurement": "IC50", "setting": "[2]", "value": "> 10", "unit": "nM"}]}, {"smiles": "CCn1ncc(C(c2ccccc2C#N)C(C)c2nc(C(=O)Nc3cnoc3)c(O)c(=O)n2C)c1C", "note": "(single isomer, unassigned) [Example 68 D1E2]", "values": [{"measurement": "IC50", "setting": "[1]", "value": "> 10", "unit": "nM"}, {"measurement": "IC50", "setting": "[2]", "value": "> 10", "unit": "nM"}]}, {"smiles": "CCn1cc(C(c2ccccc2C#N)C(C)c2nc(C(=O)Nc3cnoc3)c(O)c(=O)n2C)c(C)n1", "note": "(single isomer, unassigned) [Example 70 D1E2]", "values": [{"measurement": "IC50", "setting": "[1]", "value": "> 10", "unit": "nM"}, {"measurement": "IC50", "setting": "[2]", "value": "> 10", "unit": "nM"}]}, {"smiles": "CC(c1nc(C(=O)Nc2cnoc2)c(O)c(=O)n1C)C(c1cnn(C)c1)c1cc(F)ccc1Cl", "note": "(single isomer, unassigned) [Example 61 D1E2]", "values": [{"measurement": "IC50", "setting": "[1]", "value": "> 10", "unit": "nM"}, {"measurement": "IC50", "setting": "[2]", "value": "> 10", "unit": "nM"}]}, {"smiles": "COCCn1cc(C(c2ccccc2C#N)C(C)c2nc(C(=O)Nc3cnoc3)c(O)c(=O)n2C)c(C)n1", "note": "(single isomer, unassigned) [Example 71 D2E2]", "values": [{"measurement": "IC50", "setting": "[1]", "value": "> 10", "unit": "nM"}, {"measurement": "IC50", "setting": "[2]", "value": "> 10", "unit": "nM"}]}, {"smiles": "CC(c1nc(C(=O)Nc2cnoc2)c(O)c(=O)n1C)C(c1cnn(CC2CC2)c1)c1ccccc1C#N", "note": "(single isomer, unassigned) [Example 23 D1E1]", "values": [{"measurement": "IC50", "setting": "[1]", "value": "> 10", "unit": "nM"}, {"measurement": "IC50", "setting": "[2]", "value": "> 10", "unit": "nM"}]}, {"smiles": "CC(c1nc(C(=O)Nc2cnoc2)c(O)c(=O)n1C)C(c1cnn(CC(F)(F)F)c1)c1ccccc1C#N", "note": "(single isomer, unassigned) [Example 22 D2E2]", "values": [{"measurement": "IC50", "setting": "[1]", "value": "> 10", "unit": "nM"}, {"measurement": "IC50", "setting": "[2]", "value": "> 10", "unit": "nM"}]}, {"smiles": "Cc1cnc(C)c(C(c2cc(F)ccc2Cl)C(C)c2nc(C(=O)Nc3cnoc3)c(O)c(=O)n2C)n1", "note": "(single isomer, unassigned) [Example 121 D2E2]", "values": [{"measurement": "IC50", "setting": "[1]", "value": "> 10", "unit": "nM"}, {"measurement": "IC50", "setting": "[2]", "value": "> 10", "unit": "nM"}]}, {"smiles": "CC(c1nc(C(=O)Nc2cnoc2)c(O)c(=O)n1C)C(c1cn(C)cn1)c1ccccc1C#N", "note": "(single isomer, unassigned) [Example 39 D1E1]", "values": [{"measurement": "IC50", "setting": "[1]", "value": "> 10", "unit": "nM"}, {"measurement": "IC50", "setting": "[2]", "value": "> 10", "unit": "nM"}]}, {"smiles": "Cc1cc(C(c2ccccc2C#N)C(C)c2nc(C(=O)Nc3cnoc3)c(O)c(=O)n2C)n(C)n1", "note": "(single isomer, unassigned) [Example 63 D2E2]", "values": [{"measurement": "IC50", "setting": "[1]", "value": "> 10", "unit": "nM"}, {"measurement": "IC50", "setting": "[2]", "value": "> 10", "unit": "nM"}]}, {"smiles": "Cc1cnc(C(c2cc(F)ccc2C#N)C(C)c2nc(C(=O)Nc3cnoc3)c(O)c(=O)n2C)cn1", "note": "(single isomer, unassigned) [Example 115 D2E1]", "values": [{"measurement": "IC50", "setting": "[1]", "value": "> 10", "unit": "nM"}, {"measurement": "IC50", "setting": "[2]", "value": "> 10", "unit": "nM"}]}, {"smiles": "CC(c1nc(C(=O)Nc2cnoc2)c(O)c(=O)n1C)C(c1ccccc1C#N)c1cn(C)nc1C#N", "note": "(single isomer, unassigned) [Example 10 D2E2]", "values": [{"measurement": "IC50", "setting": "[1]", "value": "> 10", "unit": "nM"}, {"measurement": "IC50", "setting": "[2]", "value": "> 10", "unit": "nM"}]}, {"smiles": "Cc1cnc(C)c(C(c2ccccc2Cl)C(C)c2nc(C(=O)Nc3cnoc3)c(O)c(=O)n2C)n1", "note": "(single isomer, unassigned) [Example 120 D2E1]", "values": [{"measurement": "IC50", "setting": "[1]", "value": "> 10", "unit": "nM"}, {"measurement": "IC50", "setting": "[2]", "value": "> 10", "unit": "nM"}]}, {"smiles": "CC(c1nc(C(=O)Nc2cnoc2)c(O)c(=O)n1C)C(c1cnn(CCO)c1)c1ccccc1C#N", "note": "(single isomer, unassigned) [Example 35 D2E1]", "values": [{"measurement": "IC50", "setting": "[1]", "value": "1 to 10", "unit": "nM"}, {"measurement": "IC50", "setting": "[2]", "value": "> 10", "unit": "nM"}]}]}
